# US11299460B2, “MDM2 inhibitor, preparation method therefor, pharmaceutical composition thereof and use thereof” (SHANGHAI LONGWOOD BIOPHARMACEUTICALS CO., LTD., priority 2018, dated 2022)
# How the values were obtained:
# GST-hMDM2 (aa1-188) = molecular target: T1, GST-hMDM2 (aa1-188) (Homo sapiens, UniProt Q00987); assay: Homogeneous time resolved fluorometry (HTRF assay), hMDM2/p53 interaction; format: binding; settings: HTRF analysis; GST-hMDM2 (aa1-188) / biotinylated-p53 (aa1-83)
# T1 construct: The amino acid residues 1-188 of human MDM2 were expressed as GST-hMDM2 fusion protein; made in house; host or cells: E. coli
# Experimental: Residues 1-83 of human p53 were expressed as avitag <TM>-trxa-6×his fusion protein (biotinlabelled p53) in E. coli. Each protein was separated from cell homogenate by affinity chromatography.
# Specifically, 10 μL GST-hMDM2 was incubated with 10 uL diluted compound in 10% DMSO for 20 minutes at room temperature. 20 μL biotinlabelled-p53 was added to the mixture of GST-hMDM2 and then incubated at room temperature for 60 min. A 10 μL detection buffer consisting of SA-XLent, anti-GST cavernous compound antibody and KF was added to the reaction solution consisting of GST-hMDM2, biotinlabelled-p53 and the compound and was placed at room temperature to achieve equilibrium and maintained for more than 4 h. The final concentration of DMSO in the reaction solution was 2%. Time resolved fluorescence were measured on a microplate multi label reader. The inhibition percentage was calculated relative to nutlin-3.
# [1] = tested on: p21 transcripts in SJSA-1 cells; assay: p21 assay (QRT-PCR of p21 transcripts in SJSA-1 cells); format: cell-based, human; settings: cell assay (SJSA-1 cell), p21 induction, 7 hours incubation
# Excerpt: Inhibition of the interaction between hMDM2 and p53 results in the activation of the p53 pathway via the stabilization and accumulation of p53. P53 activates the transcription of many genes, one of which is p21<WAFT/CIP1>. To evaluate the potency of hMDM2 inhibitors, quantitative reverse transcription polymerase chain reaction (QRT PCR) was used to measure the level of p21 transcripts of compound related cells relative to that of control cells treated with dimethyl sulfoxide (DMSO).
# In the first day, SJSA-1 cells were inoculated into 100 μL growth medium (RPMI1640; 10 mM HEPES; 1 mM sodium pyruvate; 1× penicillin streptomycin glutamine (PSQ) and 10% FBS, all reagents were obtained from Invitrogen) at a density of 3×10^4 cells in 96-well cell culture plate. The cells were cultured overnight at 37° C. and 5% CO2 atmosphere.
# In the second day, hMDM2 inhibitor was gradient diluted in DMSO(Sigma-Aldrich; St. Louis, Mo.). 5 μl of each compound dilution were added into 245 μl filtered assay medium (RPMI1640, 10% FBS, 10 mM HEPES, 1 mM sodium pyruvate and 1×PSQ). Or the assay was conducted with the presence of 10% human serum or 10% mouse serum, or without serum. Growth medium was removed from inoculated SJSA-1 cell culture plate and replaced by 100 μL assay medium for each well. Then 100 μL culture medium containing diluted inhibitor was added into each well to a final volume 200 μL. The final concentration of the compound was in the range of 0.049 μm-50 μm by dose titration with DMSO as control. The cells were incubated at 37° C. and 5% CO2 for 7 hours with the presence of inhibitor. When incubation was completed, growth medium was removed from cells and the plate was stored at −80° C.
# In the third day, giagen BioRobot Universal workstation was used to purify total RNA from SJSA-1 cells treated with inhibitor and DMSO respectively. The purification procedure herein was according to RNeasy96BioRobot8000 test kit provided by Qiagen, Valencia, Calif.
# To measure the level of existing p21 transcripts, QRT-PCR was introduced. The levels of p21, housekeeping genes and glyceraldehyde 3-phosphate dehydrogenase (GAPDH) were determined by the total RNA from each inhibitor- or DMSO-treated well by duplicated test. The QRT-PCR reaction was performed on the Applied Biosystems prism 7900ht instrument using the relative quantitative (ΔΔ Ct) method according to the following cycle conditions: 48° C. for 30 minutes, then 95° C. for 10 minutes, and then was 40 cycles consisting of 95° C. for 15 seconds and 60° C. for 1 minute. The data were analyzed by using Applied Biosystems SDS2.2 software, with GAPDH as inner control and DMSO treated samples as calibrators. SDS2.2 software calculated the relative quantification (RQ) or increased fold of p21 level relative to DMSO control for each treated sample. The maximum (100%) p21 induction fold was defined by the maximum value of the fitting curve of the reference compound. The p21 induction fold of each inhibitor dose tested was converted to a value representing the percentage of the maximum value. XLFit software (ID business solutions, Alameda, Calif.) was used to make dose-response curve to calculate the IC50 transit value of each inhibitor tested.
# T1 sequence (Q00987 1-188): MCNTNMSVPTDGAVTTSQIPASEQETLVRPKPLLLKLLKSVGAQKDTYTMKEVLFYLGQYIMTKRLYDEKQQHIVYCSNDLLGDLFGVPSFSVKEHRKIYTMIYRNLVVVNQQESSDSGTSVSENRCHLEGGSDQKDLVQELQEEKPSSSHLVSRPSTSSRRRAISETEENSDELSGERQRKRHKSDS
Structure (SMILES),IC50 (GST-hMDM2 (aa1-188)) [nM],"IC50 ([1]; Homo sapiens, SJSA-1, 7 h) [nM]",IC50 [1] [nM]
CC(C)[C@@H](CS(=N)(=O)C(C)C)N1C(=O)[C@@](C)(CC(=O)Nc2cccc(Br)c2)C[C@H](c2cccc(Cl)c2)[C@H]1c1ccc(Cl)cc1 (stereo partly drawn) [Compound 012],> 100,1000 to 10000,–
Cc1c(Br)cccc1NC(=O)C[C@@]1(C)C[C@H](c2cccc(Cl)c2)[C@@H](c2ccc(Cl)cc2)N([C@H](CS(=N)(=O)C(C)C)C(C)C)C1=O (stereo partly drawn) [Compound 013],> 100,1000 to 10000,–
CC(C)[C@@H](CS(=N)(=O)C(C)C)N1C(=O)[C@@](C)(CC(=O)Nc2ccc(F)cc2Br)C[C@H](c2cccc(Cl)c2)[C@H]1c1ccc(Cl)cc1 (stereo partly drawn) [Compound 014],> 100,1000 to 10000,–
CC(C)[C@@H](CS(=N)(=O)C(C)C)N1C(=O)[C@@](C)(CC(=O)Nc2ccccc2)C[C@H](c2cccc(Cl)c2)[C@H]1c1ccc(Cl)cc1 (stereo partly drawn) [Compound 015],10 to 100,1000 to 10000,–
CC(C)[C@@H](CS(=N)(=O)C(C)C)N1C(=O)[C@@](C)(CC(=O)Nc2cccc(C(F)(F)F)c2)C[C@H](c2cccc(Cl)c2)[C@H]1c1ccc(Cl)cc1 (stereo partly drawn) [Compound 016],> 100,1000 to 10000,–
CC(C)[C@@H](CS(=N)(=O)C(C)C)N1C(=O)[C@@](C)(CC(=O)Nc2ccc(F)c(Br)c2)C[C@H](c2cccc(Cl)c2)[C@H]1c1ccc(Cl)cc1 (stereo partly drawn) [Compound 017],> 100,1000 to 10000,–
CC(C)[C@@H](CS(=N)(=O)C(C)C)N1C(=O)[C@@](C)(CC(=O)NS(C)(=O)=O)C[C@H](c2cccc(Cl)c2)[C@H]1c1ccc(Cl)cc1 (stereo partly drawn) [Compound 018],10 to 100,1000 to 10000,–
CC(C)[C@@H](CS(=N)(=O)C(C)C)N1C(=O)[C@@](C)(CC(=O)NS(=O)(=O)C2(C)CC2)C[C@H](c2cccc(Cl)c2)[C@H]1c1ccc(Cl)cc1 (stereo partly drawn) [Compound 019],10 to 100,1000 to 10000,–
CC(C)[C@@H](CS(=N)(=O)C(C)C)N1C(=O)[C@@](C)(CC(=O)NS(=O)(=O)c2ccccc2)C[C@H](c2cccc(Cl)c2)[C@H]1c1ccc(Cl)cc1 (stereo partly drawn) [Compound 020],10 to 100,1000 to 10000,–
Cc1ccc(S(=O)(=O)NC(=O)C[C@@]2(C)C[C@H](c3cccc(Cl)c3)[C@@H](c3ccc(Cl)cc3)N([C@H](CS(=N)(=O)C(C)C)C(C)C)C2=O)cc1 (stereo partly drawn) [Compound 021],10 to 100,1000 to 10000,–
CC(C)[C@@H](CS(=N)(=O)C(C)C)N1C(=O)[C@@](C)(CC(=O)NS(=O)(=O)c2ccc(F)cc2)C[C@H](c2cccc(Cl)c2)[C@H]1c1ccc(Cl)cc1 (stereo partly drawn) [Compound 022],10 to 100,1000 to 10000,–
COc1ccc(S(=O)(=O)NC(=O)C[C@@]2(C)C[C@H](c3cccc(Cl)c3)[C@@H](c3ccc(Cl)cc3)N([C@H](CS(=N)(=O)C(C)C)C(C)C)C2=O)cc1 (stereo partly drawn) [Compound 023],10 to 100,< 1000,–
CC(C)[C@@H](CS(=N)(=O)C(C)C)N1C(=O)[C@@](C)(CC(=O)NS(=O)(=O)c2ccc(C#N)cc2)C[C@H](c2cccc(Cl)c2)[C@H]1c1ccc(Cl)cc1 (stereo partly drawn) [Compound 024],10 to 100,1000 to 10000,–
CC(C)[C@@H](CS(=O)(=O)C(C)C)N1C(=O)[C@@](C)(CC(=O)NS(=N)(=O)C2CC2)C[C@H](c2cccc(Cl)c2)[C@H]1c1ccc(Cl)cc1 (stereo partly drawn) [Compound 025],10 to 100,1000 to 10000,–
CC(C)[C@@H](CS(=O)(=O)C(C)C)N1C(=O)[C@@](C)(CC(=O)NS(=N)(=O)C2(C)CC2)C[C@H](c2cccc(Cl)c2)[C@H]1c1ccc(Cl)cc1 (stereo partly drawn) [Compound 028A],10 to 100,< 1000,–
CC(C)[C@@H](CS(=O)(=O)C(C)C)N1C(=O)[C@@](C)(CC(=O)NS(=N)(=O)C2(C)CC2)C[C@H](c2cccc(Cl)c2)[C@H]1c1ccc(Cl)cc1 (stereo partly drawn) [Compound 028B],10 to 100,–,1000 to 10000
Cc1ccc(S(=N)(=O)NC(=O)C[C@@]2(C)C[C@H](c3cccc(Cl)c3)[C@@H](c3ccc(Cl)cc3)N([C@H](CS(=O)(=O)C(C)C)C(C)C)C2=O)cc1 (stereo partly drawn) [Compound 029],> 100,1000 to 10000,–
C=CC(=O)N=[S@@](=O)(C[C@H](C(C)C)N1C(=O)[C@@](C)(CC(=O)O)C[C@H](c2cccc(Cl)c2)[C@H]1c1ccc(Cl)cc1)C(C)C [Compound 041],10 to 100,< 1000,–

# Next, values leading:
IC50 (GST-hMDM2 (aa1-188)) [nM],"IC50 ([1]; Homo sapiens, SJSA-1, 7 h) [nM]",IC50 [1] [nM],Structure (SMILES)
< 10,< 1000,–,"CC(C)[C@@H](CS(=O)(=NC#N)C(C)C)N1C(=O)[C@@](C)(CC(=O)O)C[C@H](c2cccc(Cl)c2)[C@H]1c1ccc(Cl)cc1 (single isomer, unassigned) [Compound 006]"
< 10,< 1000,–,CC(C)[C@@H](CS(=N)(=O)C(C)C)N1C(=O)[C@@](C)(CC(=O)O)C[C@H](c2cccc(Cl)c2)[C@H]1c1ccc(Cl)cc1 (stereo partly drawn) [Compound 001]
< 10,–,< 1000,CC(C)[C@@H](CS(=N)(=O)C(C)C)N1C(=O)[C@@](C)(CC(=O)O)C[C@H](c2cccc(Cl)c2)[C@H]1c1ccc(Cl)cc1 (stereo partly drawn) [Compound 002]
< 10,< 1000,–,"CN=S(=O)(C[C@H](C(C)C)N1C(=O)[C@@](C)(CC(=O)O)C[C@H](c2cccc(Cl)c2)[C@H]1c1ccc(Cl)cc1)C(C)C (stereo partly drawn) [Compound 003, 2-((3R,5R,6S)-5-(3-chlorophenyl)-6-(4-chlorophenyl)-3-methyl-1-((2S)-3-methyl-1-(N-methyl-2-propylsulfonamido)butyl-2-)-2-oxo-piperidine-3-yl)acetic acid]"
< 10,1000 to 10000,–,CC(C)[C@@H](CS(=N)(=O)C(C)C)N1C(=O)[C@@](C)(CC(=O)Nc2ccc(C(=O)O)cc2)C[C@H](c2cccc(Cl)c2)[C@H]1c1ccc(Cl)cc1 (stereo partly drawn) [Compound 007]
< 10,< 1000,–,COc1cc(NC(=O)C[C@@]2(C)C[C@H](c3cccc(Cl)c3)[C@@H](c3ccc(Cl)cc3)N([C@H](CS(=N)(=O)C(C)C)C(C)C)C2=O)ccc1C(=O)O (stereo partly drawn) [Compound 008]
< 10,1000 to 10000,–,COc1cc(C(=O)O)ccc1NC(=O)C[C@@]1(C)C[C@H](c2cccc(Cl)c2)[C@@H](c2ccc(Cl)cc2)N([C@H](CS(=N)(=O)C(C)C)C(C)C)C1=O (stereo partly drawn) [Compound 009]
10 to 100,1000 to 10000,–,CC(C)[C@@H](CS(=N)(=O)C(C)C)N1C(=O)[C@@](C)(CC(=O)NC23CCC(C(=O)O)(CC2)CC3)C[C@H](c2cccc(Cl)c2)[C@H]1c1ccc(Cl)cc1 (stereo partly drawn) [Compound 010]
10 to 100,1000 to 10000,–,CC(C)[C@@H](CS(=N)(=O)C(C)C)N1C(=O)[C@@](C)(CC(=O)N[C@H]2CC[C@H](O)CC2)C[C@H](c2cccc(Cl)c2)[C@H]1c1ccc(Cl)cc1 (stereo partly drawn) [Compound 011]
< 10,< 1000,–,CC(C)[C@@H](CS(=O)(=NC(N)=O)C(C)C)N1C(=O)[C@@](C)(CC(=O)O)C[C@H](c2cccc(Cl)c2)[C@H]1c1ccc(Cl)cc1 (stereo partly drawn) [Compound 034]
< 10,< 1000,–,CCN=S(=O)(C[C@H](C(C)C)N1C(=O)[C@@](C)(CC(=O)O)C[C@H](c2cccc(Cl)c2)[C@H]1c1ccc(Cl)cc1)C(C)C (stereo partly drawn) [Compound 035]
< 10,< 1000,–,CC(=O)N=[S@@](=O)(C[C@H](C(C)C)N1C(=O)[C@@](C)(CC(=O)O)C[C@H](c2cccc(Cl)c2)[C@H]1c1ccc(Cl)cc1)C(C)C [Compound 039]
